ChEMBL document CHEMBL1156639, “Antiprotozoal activities of heterocyclic-substituted xanthones from the marine-derived fungus Chaetomium sp” (J Nat Prod, 2008)
Values after ≈ are worked out from the molar mass of the structure shown.

Experiments:
Trypanosoma cruzi = experiment: Antiprotozoal activity against Trypanosoma cruzi Tulahuen C4 in rat L6 cells; assay type: functional, organism-based
Plasmodium falciparum = experiment: Antimalarial activity against Plasmodium falciparum K1 in human erythrocytes by [3H]hypoxanthine uptake; assay type: functional, organism-based
[1] = tested on: Trypanosoma brucei rhodesiense; experiment: Antiprotozoal activity against Trypanosoma brucei rhodesiense STIB900; assay type: functional, organism-based
Leishmania donovani = experiment: Antiprotozoal activity against Leishmania donovani MHOM-ET-67/L82 in mouse peritoneal macrophages; assay type: functional, organism-based
L6 = experiment: Cytotoxicity against rat L6 cells; assay type: cell-based

| Structure (SMILES) | IC50 (Trypanosoma cruzi) | IC50 (Plasmodium falciparum) | IC50 [1] | IC50 (Leishmania donovani) | IC50 (L6) |
| --- | --- | --- | --- | --- | --- |
| O=C(Cn1ccnc1[N+](=O)[O-])NCc1ccccc1 [BENZNIDAZOLE] | 0.317 µg/mL (≈ 1.22 µM) | – | – | – | – |
| COc1cccc2oc3cc4c(c(O)c3c(=O)c12)[C@@H]1C[C@@H](O)C[C@](C)(O4)O1 [CHAETOXANTHONE A] | > 10 µg/mL | 3.5 µg/mL (≈ 9.45 µM) | 4.7 µg/mL (≈ 12.7 µM) | 5.3 µg/mL (≈ 14.3 µM) | 59.1 µg/mL (≈ 160 µM) |
| COc1cccc2oc3cc4c(c(O)c3c(=O)c12)C1CCCC(C)(O4)O1 (stereo unspecified) [CHAETOXANTHONE B] | 7.1 µg/mL (≈ 20 µM) | 0.5 µg/mL (≈ 1.41 µM) | 9.3 µg/mL (≈ 26.2 µM) | 3.4 µg/mL (≈ 9.59 µM) | > 90 µg/mL |
| COc1cccc2oc3c(Cl)c(O)c([C@H]4CCC[C@@H](C)O4)c(O)c3c(=O)c12 [CHAETOXANTHONE C] | 1.5 µg/mL (≈ 3.84 µM) | 4 µg/mL (≈ 10.2 µM) | 42.6 µg/mL (≈ 109 µM) | 3.1 µg/mL (≈ 7.93 µM) | 46.7 µg/mL (≈ 119 µM) |
